Results: ChEMBL document CHEMBL1800015, “Cytotoxic steroidal alkaloids from Kibatalia laurifolia” (J Nat Prod, 2011)

What follows are compounds tested on KB (assay: Cytotoxicity against human KB cells after 72 hrs by neutral red based colorimetry assay).
Type: functional, cell-based

Row | SMILES | IC50 [µM]
1 | CC(=O)N(C)[C@H]1C=C2C=C[C@H]3[C@@H]4CC[C@@H]5[C@H](C)OC(=O)[C@@]54CC[C@@H]3[C@@]2(C)CC1 [KIBALAURIFOLINE] | 21
2 | CN[C@H]1CC[C@@]2(C)C(=C[C@@H](O)[C@H]3[C@@H]4CC[C@@H]5[C@H](C)OC(=O)[C@@]54CC[C@@H]32)C1 | > 50
3 | C[C@@H]1OC(=O)[C@]23CC[C@H]4[C@@H](C(=O)C=C5C=CCC[C@@]54C)[C@@H]2CC[C@H]13 [KIBALAURIFENONE] | 21
4 | C[C@@H]1OC(=O)[C@]23CC[C@H]4[C@@H](CC=C5C[C@H](N)CC[C@@]54C)[C@@H]2CC[C@H]13 [GITINGENSINE] | 21
5 | CN[C@H]1CC[C@@]2(C)C(=CC[C@H]3[C@@H]4CC[C@@H]5[C@H](C)OC(=O)[C@@]54CC[C@@H]32)C1 [PARAVALLARINE] | 12.8
6 | CN[C@@H]1CC[C@@]2(C)C(=CC[C@H]3[C@@H]4CC[C@@H]5[C@H](C)OC(=O)[C@@]54CC[C@@H]32)C1 | 21
7 | C[C@@H]1OC(=O)[C@]23CC[C@H]4[C@@H](CC=C5C[C@@H](N)CC[C@@]54C)[C@@H]2CC[C@H]13 | 21.2
8 | CC(=O)N[C@@H]1CC[C@@]2(C)C(=CC[C@H]3[C@@H]4CC[C@@H]5[C@H](C)OC(=O)[C@@]54CC[C@@H]32)C1 | > 50
